Test [1] concerns cGAS/STING pathway in THP1 cells. Nature of the test: THP1 cell-based cGAS/STING pathway activity assay (IRF-3-linked luciferase reporter). To be noted: Homo sapiens, THP-1. The procedure, abridged:
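THP1 cells carrying an IRF-3-driven luciferase reporter were read across a range of compound concentrations, and IC50 values were derived from these concentration responses; the assay upper limit was 100 μM.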
(A reporter such as luciferase makes a cellular process visible.)

Test [2] has as its target Human cGAS amino acids 155-522 (Homo sapiens (Human), UniProt Q8N884). Nature of the test: cGAS biochemical activity assay (ATP remaining, Kinase-Glo Max luminescence). To be noted: human cGAS 155-522, ATP remaining (Kinase-Glo Max); read-out: cGAS IC50. Background: Kinase-Glo reads ATP consumption through a luciferase reaction.

Human cGAS amino acids 155-522, sequence (Q8N884 157-522): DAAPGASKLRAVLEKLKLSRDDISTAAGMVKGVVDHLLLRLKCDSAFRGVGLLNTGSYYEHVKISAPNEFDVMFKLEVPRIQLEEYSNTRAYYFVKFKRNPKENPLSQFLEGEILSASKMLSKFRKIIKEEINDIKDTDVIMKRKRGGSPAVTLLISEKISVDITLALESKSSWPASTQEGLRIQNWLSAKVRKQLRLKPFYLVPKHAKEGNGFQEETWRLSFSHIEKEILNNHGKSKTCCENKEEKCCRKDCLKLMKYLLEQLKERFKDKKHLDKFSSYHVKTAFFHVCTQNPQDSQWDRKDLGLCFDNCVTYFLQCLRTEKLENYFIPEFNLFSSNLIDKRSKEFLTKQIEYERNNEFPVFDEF

Broadly, the IC50 is the concentration that inhibits the measured activity by half. As to `COc1cccc2oc(-c3c[nH]c4c(-c5ccccc5)c(C(F)(F)F)nn4c3=O)nc12` [Compound C1079, 6-(4-methoxybenzo[d]oxazol-2-yl)-3-phenyl-2-(trifluoromethyl)pyrazolo[1,5-a]pyrimidin-7(4H)-one], the IC50 in test [1] is below 20 µM; in test [2], above 250 µM.

In the case of `Cc1[nH]c2c(-c3ccccc3)c(C(F)(F)F)nn2c(=O)c1-c1nc(CO)co1` [Compound C1104, 6-(4-(hydroxymethyl)oxazol-2-yl)-5-methyl-3-phenyl-2-(trifluoromethyl)pyrazolo[1,5-a]pyrimidin-7(4H)-one], the half-inhibitory concentration (IC50) in test [1] is above 100 µM; in test [2], below 20 µM.

For `Cc1[nH]c2c(-c3ccccc3)c(C(F)(F)F)nn2c(=O)c1-c1nnc(C2CCCCO2)o1` (stereo not shown) [Compound D1024, 5-methyl-3-phenyl-6-(5-(tetrahydro-2H-pyran-2-yl)-1,3,4-oxadiazol-2-yl)-2-(trifluoromethyl)pyrazolo[1,5-a]pyrimidin-7(4H)-one], the IC50 is above 100 µM in test [1] and below 20 µM in test [2].

`Cc1[nH]c2c(-c3ccccc3)c(C(F)(F)F)nn2c(=O)c1-c1nnc(C2CCCCC2)o1` [Compound D1004, 6-(5-cyclohexyl-1,3,4-oxadiazol-2-yl)-5-methyl-3-phenyl-2-(trifluoromethyl)pyrazolo[1,5-a]pyrimidin-7(4H)-one]: the figures for the IC50 in test [1] and in test [2] were above 100 µM and below 20 µM, respectively.

As to `CO[C@](c1ccccc1)(c1nnc(-c2c(C)[nH]c3c(-c4ccccc4)c(C(F)(F)F)nn3c2=O)o1)C(F)(F)F` [Compound D1029, (R)-5-methyl-3-phenyl-6-(5-(2,2,2-trifluoro-1-methoxy-1-phenylethyl)-1,3,4-oxadiazol-2-yl)-2-(trifluoromethyl)pyrazolo[1,5-a]pyrimidin-7(4H)-one], the results for the IC50 in test [1] and in test [2] were above 100 µM and below 20 µM, respectively.

On to `Cc1[nH]c2c(-c3ccccc3)c(C(F)(F)F)nn2c(=O)c1C(=O)Nc1ccn(CCO)n1` [Compound A1118, N-(1-(2-hydroxyethyl)-1H-pyrazol-3-yl)-5-methyl-7-oxo-3-phenyl-2-(trifluoromethyl)-4,7-dihydropyrazolo[1,5-a]pyrimidine-6-carboxamide], for which the IC50 in test [1] was above 100 µM; in test [2], 20 to 250 µM.

`COc1cccc(NC(=O)Cc2c(C)[nH]c3c(-c4ccccc4)c(C(F)(F)F)nn3c2=O)c1` [Compound B1011, N-(3-methoxyphenyl)-2-(5-methyl-7-oxo-3-phenyl-2-(trifluoromethyl)-4,7-dihydropyrazolo[1,5-a]pyrimidin-6-yl)acetamide]: the IC50 in test [1] lay within 20 to 100 µM; in test [2], 20 to 250 µM.

For the molecule `Cc1[nH]c2c(-c3ccccc3)c(C(F)(F)F)nn2c(=O)c1-c1nnc([C@H]2CCCOC2)o1` [Compound D1025, (S)-5-methyl-3-phenyl-6-(5-(tetrahydro-2H-pyran-3-yl)-1,3,4-oxadiazol-2-yl)-2-(trifluoromethyl)pyrazolo[1,5-a]pyrimidin-7(4H)-one], the IC50 was 20 to 100 µM in test [1] and below 20 µM in test [2].

With `Cc1[nH]c2c(-c3ccccc3)c(C(F)(F)F)nn2c(=O)c1-c1ncco1` [Compound C1170, 5-methyl-6-(oxazol-2-yl)-3-phenyl-2-(trifluoromethyl)pyrazolo[1,5-a]pyrimidin-7(4H)-one], the IC50 in test [1] is above 100 µM; in test [2] it was below 20 µM.

Regarding `COc1cccc2oc(-c3c(CS(C)(=O)=O)[nH]c4c(-c5ccccc5)c(C(F)(F)F)nn4c3=O)nc12` [Compound C1138, 6-(4-methoxybenzo[d]oxazol-2-yl)-5-((methylsulfonyl)methyl)-3-phenyl-2-(trifluoromethyl)pyrazolo[1,5-a]pyrimidin-7(4H)-one], the IC50 was above 100 µM in test [1] and below 20 µM in test [2].

Turning to `CC(=O)N1CCCC(c2nnc(-c3c(C)[nH]c4c(-c5ccccc5)c(C(F)(F)F)nn4c3=O)o2)C1` (stereo not shown) [Compound D1041, 6-(5-(1-acetylpiperidin-3-yl)-1,3,4-oxadiazol-2-yl)-5-methyl-3-phenyl-2-(trifluoromethyl)pyrazolo[1,5-a]pyrimidin-7(4H)-one], the IC50 is above 100 µM in test [1] and 20 to 250 µM in test [2].

With `Cc1cc(NC(=O)c2c(C)[nH]c3c(-c4ccccc4)c(C(F)(F)F)nn3c2=O)[nH]n1` [Compound A1081, 5-methyl-N-(3-methyl-1H-pyrazol-5-yl)-7-oxo-3-phenyl-2-(trifluoromethyl)-4,7-dihydropyrazolo[1,5-a]pyrimidine-6-carboxamide], the IC50 in test [1] was 20 to 100 µM; in test [2], below 20 µM.

`COc1cccc2oc(-c3c(C(=O)NC4COC4)[nH]c4c(-c5ccccc5)c(C(F)(F)F)nn4c3=O)nc12` [Compound C1185, 6-(4-methoxybenzo[d]oxazol-2-yl)-N-(oxetan-3-yl)-7-oxo-3-phenyl-2-(trifluoromethyl)-4,7-dihydropyrazolo[1,5-a]pyrimidine-5-carboxamide]: the IC50 in test [1] was 20 to 100 µM; in test [2], below 20 µM.

On to `COc1cccc2c(-c3c(C)[nH]c4c(-c5ccccc5)c(C(F)(F)F)nn4c3=O)n[nH]c12` [Compound C1026, 6-(7-methoxy-1H-indazol-3-yl)-5-methyl-3-phenyl-2-(trifluoromethyl)pyrazolo[1,5-a]pyrimidin-7(4H)-one], for which the IC50 was below 20 µM in test [1] and 20 to 250 µM in test [2].

Regarding `Cc1[nH]c2c(-c3ccccc3)c(C(F)(F)F)nn2c(=O)c1C(=O)Nc1ccc(S(C)(=O)=O)nc1` [Compound A1113, 5-methyl-N-(6-(methylsulfonyl)pyridin-3-yl)-7-oxo-3-phenyl-2-(trifluoromethyl)-4,7-dihydropyrazolo[1,5-a]pyrimidine-6-carboxamide], the figures for the concentration for half-maximal inhibition (IC50) in test [1] and in test [2] were above 100 µM and 20 to 250 µM, respectively.

In the case of `Cc1nc(NC(=O)c2c(C)[nH]c3c(-c4ccccc4)c(C(F)(F)F)nn3c2=O)oc1C` [Compound A1056, N-(4,5-dimethyloxazol-2-yl)-5-methyl-7-oxo-3-phenyl-2-(trifluoromethyl)-4,7-dihydropyrazolo[1,5-a]pyrimidine-6-carboxamide], the IC50 in test [1] was 20 to 100 µM; in test [2], below 20 µM.

Turning to `COc1cc(N(C)C)cc2oc(-c3c(C)[nH]c4c(-c5ccccc5)c(C(F)(F)F)nn4c3=O)nc12` [Compound C1162, 6-(6-(dimethylamino)-4-methoxybenzo[d]oxazol-2-yl)-5-methyl-3-phenyl-2-(trifluoromethyl)pyrazolo[1,5-a]pyrimidin-7(4H)-one], the IC50 in test [1] and in test [2] was below 20 µM each time.

For the molecule `Cc1[nH]c2c(-c3ccccc3)c(C(F)(F)F)nn2c(=O)c1-c1nnc(-c2cccc(O)n2)o1` [Compound D1086, 6-(5-(6-hydroxypyridin-2-yl)-1,3,4-oxadiazol-2-yl)-5-methyl-3-phenyl-2-(trifluoromethyl)pyrazolo[1,5-a]pyrimidin-7(4H)-one], the figures for the IC50 in test [1] and in test [2] were above 100 µM and below 20 µM, respectively.

For `COc1cccc2oc(-c3c(-c4cn[nH]c4)[nH]c4c(-c5ccccc5)c(C(F)(F)F)nn4c3=O)nc12` [Compound C1254, 6-(4-methoxybenzo[d]oxazol-2-yl)-3-phenyl-5-(1H-pyrazol-4-yl)-2-(triluoromethyl)pyrazolo[1,5-a]pyrimidin-7(4H)-one], the IC50 in test [1] is above 100 µM; in test [2] it was below 20 µM.

As for `COc1cccc2oc(-c3c(COCC(=O)O)[nH]c4c(-c5ccccc5)c(C(F)(F)F)nn4c3=O)nc12` [Compound C1146, 2-((6-(4-methoxybenzo[d]oxazol-2-yl)-7-oxo-3-phenyl-2-(trifluoromethyl)-4,7-dihydropyrazolo[1,5-a]pyrimidin-5-yl)methoxy)acetic acid], the IC50 in test [1] is above 100 µM; in test [2], below 20 µM.

Turning to `COc1cc(C#N)cc2oc(-c3c(C)[nH]c4c(-c5ccccc5)c(C(F)(F)F)nn4c3=O)nc12` [Compound C1112, 4-methoxy-2-(5-methyl-7-oxo-3-phenyl-2-(trifluoromethyl)-4,7-dihydropyrazolo[1,5-a]pyrimidin-6-yl)benzo[d]oxazole-6-carbonitrile], the IC50 is above 100 µM in test [1] and 20 to 250 µM in test [2].

In the case of `COc1cccc2oc(-c3c(-c4cnn(C)c4)[nH]c4c(-c5ccccc5)c(C(F)(F)F)nn4c3=O)nc12` [Compound C1255, 6-(4-methoxybenzo[d]oxazol-2-yl)-5-(1-methyl-1H-pyrazol-4-yl)-3-phenyl-2-(trifluoromethyl)pyrazolo[1,5-a]pyrimidin-7(4H)-one], the IC50 in test [1] is above 100 µM; in test [2], below 20 µM.

On to `COc1cccc2nc(-c3c(C)[nH]c4c(-c5ccccc5)c(C(F)(F)F)nn4c3=O)cn12` [Compound C1057, 6-(5-methoxyimidazo[1,2-a]pyridin-2-yl)-5-methyl-3-phenyl-2-(trifluoromethyl)pyrazolo[1,5-a]pyrimidin-7(4H)-one], for which the IC50 in test [1] is above 100 µM; in test [2], below 20 µM.

On to `COc1cccc2oc(-c3c(C(=O)NCC(=O)O)[nH]c4c(-c5ccccc5)c(C(F)(F)F)nn4c3=O)nc12` [Compound C1195, (6-(4-methoxybenzo[d]oxazol-2-yl)-7-oxo-3-phenyl-2-(trifluoromethyl)-4,7-dihydropyrazolo[1,5-a]pyrimidine-5-carbonyl)glycine], for which the IC50 was above 100 µM in test [1] and below 20 µM in test [2].

Take `Cc1[nH]c2c(-c3ccccc3)c(C(F)(F)F)nn2c(=O)c1-c1nnc(NC(=N)N)o1` [Compound D1077, 1-(5-(5-methyl-7-oxo-3-phenyl-2-(trifluoromethyl)-4,7-dihydropyrazolo[1,5-a]pyrimidin-6-yl)-1,3,4-oxadiazol-2-yl)guanidine]: the figures for the IC50 in test [1] and in test [2] were above 100 µM and below 20 µM, respectively.

In the case of `COc1cccc2oc(-c3c(C(=O)NCCO)[nH]c4c(-c5ccccc5)c(C(F)(F)F)nn4c3=O)nc12` [Compound C1178, N-(2-hydroxyethyl)-6-(4-methoxybenzo[d]oxazol-2-yl)-7-oxo-3-phenyl-2-(trifluoromethyl)-4,7-dihydropyrazolo[1,5-a]pyrimidine-5-carboxamide], the 50% inhibitory concentration (IC50) in test [1] and in test [2] was below 20 µM throughout.

For the origin of these results see patent US10738056B2 (Aduro BioTech, Inc., priority 2017, dated 2020).
